Assays:
DENV4 NS2B-NS3pro [1] = biological target: T1, DENV4 NS2B-NS3pro (Dengue virus type 4, UniProt Q2YHF0, DELINS1442-1474GGGGSGGGG); experiment: In vitro inhibition assay of recombinant NS2B-NS3pro with fluorogenic AMC peptide substrate; assay type: biochemical, dengue virus type 4 (DENV4); settings: primary inhibition assay at a 100 μM concentration of inhibitors; Table S1
DENV4 NS2B-NS3pro [2] = biological target: T1, DENV4 NS2B-NS3pro; experiment: Inhibitor enzyme kinetics (Lineweaver-Burk and Dixon plots) against NS2B-NS3pro; assay type: biochemical, dengue virus type 4 (DENV4); settings: AMC peptide substrates
Experimental: Inhibitory kinetic experiments were performed at different constant inhibitor concentrations and different substrate concentrations. Lineweaver–Burk and Dixon plots were used to analyze the inhibition modes of these compounds. Ki values were calculated from the Dixon plots.
The type of inhibition was determined using Lineweaver–Burk plots, and Ki values were determined with a Dixon plot (1/v as a function of [I], inhibitor concentration) from different inhibitor concentrations.

T1 sequence (Q2YHF0 1475-1660, added parts left off, stated change not applied): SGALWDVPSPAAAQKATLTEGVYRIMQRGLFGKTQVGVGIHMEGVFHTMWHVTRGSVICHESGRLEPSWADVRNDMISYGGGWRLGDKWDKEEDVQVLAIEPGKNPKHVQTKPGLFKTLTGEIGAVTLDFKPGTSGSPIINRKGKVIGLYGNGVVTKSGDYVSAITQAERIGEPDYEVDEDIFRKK

For `CC(=O)N1N=C(c2cc(-c3ccccc3)nc3ccccc23)OC1c1ccc(C(=O)O)cc1` (centres unmarked) [Compound 14, 4-(3-acetyl-5-(2-phenylquinolin-4-yl)-2,3-dihydro-1,3,4-oxadiazol-2-yl)benzoic acid], the “Inhibition Activity” value (DENV4 NS2B-NS3pro [1]) was 98.15% and the Inhibition mode (DENV4 NS2B-NS3pro [2]) was “competitive inhibitors”.
